Data published in PubChem BioAssay AID1963430 (Molecular Pharmacology Branch, DTP, NCI, 2024).

System: 521955-158-R2-J5-PDC complex spheroid growth, % test/control
Experiment: Anticancer human tumor 521955-158-R2-J5-PDC patient-derived pancreatic carcinoma cell line growth inhibition [Asc]
Conditions: for IC50: curve of first compound; for viability, T/C: stronger effect = lower value
Procedure: Multicellular complex tumor spheroid response to apoptosis pathway targeting inhibitors Alrizomadlin, Pelcitoclax, and Dasminapant in combination with a variety of drugs and investigational agents in selected tumor cell lines
The MDM2 inhibitor alrizomadlin, the Bcl-2/Bcl-xL inhibitor pelcitoclax, and the IAPs inhibitor dasminapant were evaluated both individually and in combination with standard of care and investigational anticancer small molecules within a complex spheroid model of solid tumors. . Complex spheroids include a stromal component modeled by human endothelial cells (HUVEC) and fibroblasts modeled by human mesenchymal stem cells (MSCs). The concentration ranges selected for each drug and investigational agent were based upon clinically achievable concentrations if the clinical Cmax of the agent was known.
Compounds. The drugs and investigational agents: alrizomadlin (APG-115; NSC831270), pelcitoclax (APG-1252; NSC835773), dasminapant (APG-1387;NSC834197), TAK-243 (NSC785004), copanlisib (NSC809693), olaparib (NSC753686), talazoparib (NSC767125), cobimetinib (NSC 768068), eltanexor (KPT-8602, NSC 794443), abemaciclib (NSC 768073), sotorasib (NSC818433), adagrasib (NSC 831453), MRTX-1133 (NSC 836407), Iadademestat (ORY1001, NSC 806812), and RMC-4630 (NSC839698), were obtained from the NCI Developmental Therapeutics Program Chemical Repository. The FDA-approved anticancer drug set is available from the Developmental Therapeutics Program at https://dtp.cancer.gov/organization/dscb/obtaining/available plates.htm. […] The stock solutions were prepared in dimethyl sulfoxide (DMSO, Sigma-Aldrich, St. Louis, MO, cat. D2650) at 800-fold the tested concentration and stored at -70 degrees C prior to their use. All drugs and investigational agents were tested over a range starting from a high concentration at or near the clinical Cmax and decreasing in half-log increments. If the clinical Cmax for an agent had not been determined, the highest concentration tested was 10 microM.
The patient-derived cancer (PDC) cell lines include five colon adenocarcinomas: 186277-243-T-J2-PDC, 616215-338-R-J1-PDC, 439559-082-T-J2-PDC, 463943-066-T-J2-PDC, and 519858-162-T-J1-PDC; three pancreatic carcinomas: 323965-272-R-J2-PDC, 521955-158-R6-J3-PDC, and 521955-158-R2-J5-PDC; two uterine sarcomas: 327498-152-R-J2-PDC and 993429-296-R-J1-PDC; two rhabdomyosarcomas: 755483-174-R-J1-PDC and 772245-204-R-J1-PDC; two soft tissue sarcomas: 126254-015-R-J1-PDC and 494315-158-R-J1-PDC; two malignant fibrous histiocytomas: 317291-083-R-J1-PDC and 596521-263-R-J1-PDC; two breast carcinomas: 171881-019-R-J1-PDC and 885512-296-R-J2-PDC; and one ovarian carcinoma: 6556581-035-R-J-PDC were obtained from the NCI PDMR, (https://pdmr.cancer.gov). The established cell lines HSSY-2 synovial sarcoma (RRID:CVCL 8719), SYO-1 synovial sarcoma (RRID:CVCL_7146), MPNST malignant peripheral neural sheath tumor were obtained from the Sloan Kettering Institute. The following established cell lines were purchased from the American Type Culture Collection (ATCC, Manassas, VA), Sor the received from the NCI repository:, PANC-1 pancreatic carcinoma (CRL-1469, RRID:CVCL_0480), OVCAR-5 ovarian carcinoma (RRID:CVCL_1628), OVCAR-8 ovarian carcinoma (RRID:CVCL_1629), , MCF-7 breast carcinoma (CRL-12584, RRID:CVCL_0031), MDA-MB-231 breast carcinoma (CRL-12532, RRID:CVCL_0062), NCI-H1876 small cell lung carcinoma (CRL-5902, RRID:CVCL_1503), NCI-H510A small cell lung carcinoma (HTB-184, RRID:CVCL_1565), NCI-H1417 (CRL-5869, RRID:CVCL_1469), and NCI-H196 small cell lung carcinoma (CRL-5823, RRID:CVCL_1509). Dr. Peter Houghton (Greehey Children's Cancer Research Institute, University of Texas Health Science Center, San Antonio, TX) provided Rh-18 rhabdomyosarcoma (RRID:CVCL_1659). Pooled donor human umbilical vein endothelial cells (HUVEC, Lonza, cat. CC-2519) and human mesenchymal stem cells (hMSC, Lonza, cat. PT-2501) were purchased from Lonza (Walkersville, MD).
Cell Culture. […]

[1] = second compound 0.03 µM, first compound 0.00316 µM
[2] = second compound 0.03 µM, first compound 0.01 µM
[3] = second compound 0.03 µM, first compound 0.0316 µM
[4] = second compound 0.03 µM, first compound 0.1 µM
[5] = second compound 0.03 µM, first compound 0.316 µM
[6] = second compound 0.03 µM, first compound 1 µM
[7] = second compound 0.0949 µM, first compound 0.00316 µM
[8] = second compound 0.0949 µM, first compound 0.01 µM
[9] = second compound 0.0949 µM, first compound 0.0316 µM
[10] = second compound 0.0949 µM, first compound 0.1 µM
[11] = second compound 0.0949 µM, first compound 0.316 µM
[12] = second compound 0.0949 µM, first compound 1 µM
[13] = second compound 0.3 µM, first compound 0.00316 µM
[14] = second compound 0.3 µM, first compound 0.01 µM
[15] = second compound 0.3 µM, first compound 0.0316 µM
[16] = second compound 0.3 µM, first compound 0.1 µM
[17] = second compound 0.3 µM, first compound 0.316 µM
[18] = second compound 0.3 µM, first compound 1 µM
[19] = second compound 0.949 µM, first compound 0.00316 µM
[20] = second compound 0.949 µM, first compound 0.01 µM
[21] = second compound 0.949 µM, first compound 0.0316 µM
[22] = second compound 0.949 µM, first compound 0.1 µM
[23] = second compound 0.949 µM, first compound 0.316 µM
[24] = second compound 0.949 µM, first compound 1 µM
[25] = second compound 3 µM, first compound 0.00316 µM
[26] = second compound 3 µM, first compound 0.01 µM
[27] = second compound 3 µM, first compound 0.0316 µM
[28] = second compound 3 µM, first compound 0.1 µM
[29] = second compound 3 µM, first compound 0.316 µM
[30] = second compound 3 µM, first compound 1 µM
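Also: spheroids exposed to agents for 7 days before readout.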
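For viability, T/C in this document: 100% = DMSO vehicle control viability.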

Compound	IC50 (second compound 0.03 µM)	IC50 (second compound 0.0949 µM)	IC50 (second compound 0.3 µM)	IC50 (second compound 0.949 µM)	IC50 (second compound 3 µM)	viability, T/C [1]	viability, T/C [2]	viability, T/C [3]	viability, T/C [4]	viability, T/C [7]	viability, T/C [8]	viability, T/C [9]	viability, T/C [10]	viability, T/C [13]	viability, T/C [14]	viability, T/C [15]	viability, T/C [16]	viability, T/C [19]	viability, T/C [20]	viability, T/C [21]	other results
CCN1CCN(Cc2ccc(Nc3ncc(F)c(-c4cc(F)c5nc(C)n(C(C)C)c5c4)n3)nc2)CC1 + CCN1C(C(=O)NC23CCC(C(=O)O)(CC2)CC3)C(c2cccc(Cl)c2F)C2(C(=O)Nc3cc(Cl)ccc32)C12CCCCC2	> 1000 nM	> 1000 nM	> 1000 nM	> 1000 nM	> 1000 nM	87.5%	88.8%	57.3%	77.4%	101%	79.8%	62.8%	56.3%	106%	99.1%	65.6%	60.9%	119%	102%	107%	viability, T/C [5]: 72.4%; viability, T/C [6]: 89.4%; viability, T/C [11]: 73.2%; viability, T/C [12]: 105%; viability, T/C [17]: 83.8%; viability, T/C [18]: 110%; viability, T/C [22]: 79%; viability, T/C [23]: 92.3%; viability, T/C [24]: 98.2%; viability, T/C [25]: 142%; viability, T/C [26]: 172%; viability, T/C [27]: 126%; viability, T/C [28]: 89.6%; viability, T/C [29]: 107%; viability, T/C [30]: 139%
Cn1ncnc1[C@H]1c2n[nH]c(=O)c3cc(F)cc(c23)N[C@@H]1c1ccc(F)cc1 + CCN1C(C(=O)NC23CCC(C(=O)O)(CC2)CC3)C(c2cccc(Cl)c2F)C2(C(=O)Nc3cc(Cl)ccc32)C12CCCCC2	> 100 nM	> 100 nM	> 100 nM	> 100 nM	> 100 nM	100%	57.9%	76.7%	55.6%	90.5%	71.7%	66.6%	49.4%	101%	110%	78%	67.8%	107%	98.9%	94.2%	viability, T/C (second compound 0.03 µM, first compound 0.000316 µM): 142%; viability, T/C (second compound 0.03 µM, first compound 0.001 µM): 56.8%; viability, T/C (second compound 0.0949 µM, first compound 0.000316 µM): 104%; viability, T/C (second compound 0.0949 µM, first compound 0.001 µM): 77.5%; viability, T/C (second compound 0.3 µM, first compound 0.000316 µM): 90.6%; viability, T/C (second compound 0.3 µM, first compound 0.001 µM): 100%; viability, T/C (second compound 0.949 µM, first compound 0.000316 µM): 116%; viability, T/C (second compound 0.949 µM, first compound 0.001 µM): 135%; viability, T/C [22]: 73%; viability, T/C (second compound 3 µM, first compound 0.000316 µM): 146%; viability, T/C (second compound 3 µM, first compound 0.001 µM): 116%; viability, T/C [25]: 122%; viability, T/C [26]: 130%; viability, T/C [27]: 122%; viability, T/C [28]: 86.6%
O=C(c1ccc(F)c(F)c1Nc1ccc(I)cc1F)N1CC(O)([C@@H]2CCCCN2)C1 + CCN1C(C(=O)NC23CCC(C(=O)O)(CC2)CC3)C(c2cccc(Cl)c2F)C2(C(=O)Nc3cc(Cl)ccc32)C12CCCCC2	77 nM	39.4 nM	165 nM	156 nM	620 nM	65.8%	56%	62.5%	45.1%	80.7%	80.1%	51.1%	51.7%	64.5%	83.3%	85.2%	60%	93.3%	91.3%	82.4%	viability, T/C [5]: 37.2%; viability, T/C [6]: 29.1%; viability, T/C [11]: 43.1%; viability, T/C [12]: 35.4%; viability, T/C [17]: 40.9%; viability, T/C [18]: 33.1%; viability, T/C [22]: 57.3%; viability, T/C [23]: 37.8%; viability, T/C [24]: 38.1%; viability, T/C [25]: 107%; viability, T/C [26]: 102%; viability, T/C [27]: 80%; viability, T/C [28]: 71.8%; viability, T/C [29]: 61.8%; viability, T/C [30]: 42.5%
